Measurements: US20170208848A1, “PROCESS FOR MANUFACTURING AN IRON FORTIFIED FOOD PRODUCT” (NESTEC S.A., priority 2014, published 2017)

Test: Browning of the sprayed regions of the edible material with polysaccharide in the liquid composition
Format: physicochemical
Details: polysaccharide included in the liquid composition
Text: The polysaccharide comprised in the liquid composition of the process of the invention may be selected from the group consisting of maltodextrin, acacia gum, agar-agar, carrageenan, tragacanth, locust bean gum, guar gum, xanthan gum and combinations of these. […] The polysaccharide may be carrageenan or acacia gum.

Substance | browning of the sprayed regions of the edible material
Carrageenan | particularly effective at preventing or delaying browning
acacia gum | particularly effective at preventing or delaying browning
